Target: IGF1R Ba/F3 (Homo sapiens, UniProt P08069)
Assay: Ba/F3 Cell Viability Inhibition Assay (Tel-TK transformed Ba/F3 lines)
Assay type: cell-based, murine
Design: the printed alternative
Conditions: Tel-TK (IGF1R) transformed Ba/F3 cells, 48 hours incubation, cell viability (Britelite luminescence)
Excerpt: Ba/F3 is a murine IL-3-dependent pro-B lymphoma cell line. Parental Ba/F3 cells are used to generate a panel of sublines whose proliferation and survival is rendered IL-3-independent by stable transduction with individual tyrosine kinases activated by fusion with the amino-terminal portion of TEL (amino acid 1-375) or BCR. In order to generate Ba/F3 cell lines transformed by Tel-Tyrosine Kinase (TK) fusions, parental Ba/F3 cells are infected with a retrovirus harboring each TEL-fusion kinase and subjected to puromycin selection and IL-3 withdrawal to obtain IL-3-independent, transformed Ba/F3 cells.
Each transformed Ba/F3 cells are cultured in RPMI-1640 media (Gibco Cat #11875093, Carlsbad, Calif.) supplemented with 10% FBS (Hyclone Cat #SV30014.03, Logan, Utah), 4.5 g/L glucose (Sigma #G5400, St.Louis, Mo.), 1.5 g/L sodium bicarbonate (Biowhittaker #17-613E, Walkersville, Md.) and Pen/Strep (Gibco #10378-016, Carlsbad, Calif.). Cells are splitted twice weekly.
The potency of test compounds against various Tel-TK transformed Ba/F3 lines is determined as follows. Exponentially growing BaF3 Tel-TK cells are diluted in fresh medium to 75,000 cells/mL and seeded into 384-well plates (3750 cells/well) at 50 μL/well using a gill liquid dispenser (BioTek, Winooski, Vt., USA). Duplicate plates are run for each cell line. Test and control compounds are serially diluted with DMSO and arrayed in a polypropylene 384-well plate. 50 nL of compound is transferred into the assay plates using a pin-transfer device, and the plates are incubated at 37° C. (5% CO2) for 48 hours. 25 μL Britelite (Perkin Elmer) is added and luminescence is quantified using Analyst GT (Molecular Devices). Custom curve-fitting software is used to produce a logistic fit of percent cell viability as a function of the logarithm of inhibitor concentration. The IC50 is interpolated as the concentration of compound needed to reduce cell viability to 50% of a DMSO control. Parental Ba/F3 cells that are maintained and cultured in presence of IL-3 (1 ng/ml in final) are diluted in fresh medium containing IL-3 (1 ng/ml in final) to 75,000 cells/mL following the same procedure as described above.

Chain of IGF1R Ba/F3 (P08069 999-1274 limits assumed): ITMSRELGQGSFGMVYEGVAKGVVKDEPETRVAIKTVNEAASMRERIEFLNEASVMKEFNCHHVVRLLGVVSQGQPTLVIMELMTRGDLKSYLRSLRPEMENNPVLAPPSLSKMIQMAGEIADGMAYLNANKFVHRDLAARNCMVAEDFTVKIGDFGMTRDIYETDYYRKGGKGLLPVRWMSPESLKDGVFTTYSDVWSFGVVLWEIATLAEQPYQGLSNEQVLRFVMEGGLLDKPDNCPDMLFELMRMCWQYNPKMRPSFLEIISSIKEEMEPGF

Row | Compound | IC50 [nM]
1 | Cc1cc(Nc2nc(Nc3cc(C)c(-c4csc(C)n4)cc3C)ncc2Cl)n[nH]1 [Compound 24, 5-chloro-N2-(2,5-dimethyl-4-(2-methylthiazol-4-yl)phenyl)-N4-(5-methyl-1H-pyrazol-3-yl)pyrimidine-2,4-diamine] | 106
2 | Cc1cc(Nc2nc(Nc3cc(C)c(-c4nccn4C)cc3C)ncc2Cl)n[nH]1 [Compound 25, 5-chloro-N2-(2,5-dimethyl-4-(1-methyl-1H-imidazol-2-yl)phenyl)-N4-(5-methyl-1H-pyrazol-3-yl)pyrimidine-2,4-diamine] | 71
3 | Cc1cc(Nc2nc(Nc3cc(C)c(-c4ccccn4)cc3F)ncc2Cl)n[nH]1 [Compound 6, 5-chloro-N2-(2-fluoro-5-methyl-4-(pyridin-2-yl)phenyl)-N4-(5-methyl-1H-pyrazol-3-yl)pyrimidine-2,4-diamine] | 294
4 | Cc1cc(-c2cc(C)c(Nc3ncc(Cl)c(Nc4cc(C)[nH]n4)n3)cc2C)on1 [Compound 18, 5-chloro-N2-(2,5-dimethyl-4-(3-methylisoxazol-5-yl)phenyl)-N4-(5-methyl-1H-pyrazol-3-yl)pyrimidine-2,4-diamine] | 276
5 | Cc1cc(Nc2nc(Nc3cc(C)c([C@H]4CC[C@H](O)CC4)cc3C)ncc2C(F)(F)F)n[nH]1 [Compound 41, trans-4-(2,5-dimethyl-4-(4-(5-methyl-1H-pyrazol-3-ylamino)-5-(trifluoromethyl)pyrimidin-2-ylamino)phenyl)cyclohexanol] | 25
6 | Cc1cc(Nc2nc(Nc3ccc(C4CCN(CC(O)C(F)(F)F)CC4)c4ccccc34)ncc2Cl)n[nH]1 (stereo not drawn) [Compound 88, 3-(4-(4-(5-chloro-4-(5-methyl-1H-pyrazol-3-ylamino)pyrimidin-2-ylamino)naphthalen-1-yl)piperidin-1-yl)-1,1,1-trifluoropropan-2-ol] | 346
7 | CNC(=O)CN1CCC(c2ccc(Nc3ncc(Cl)c(Nc4cc(C)[nH]n4)n3)c3ccccc23)CC1 [Compound 87, 2-(4-(4-(5-chloro-4-(5-methyl-1H-pyrazol-3-ylamino)pyrimidin-2-ylamino)naphthalen-1-yl)piperidin-1-yl)-N-methylacetamide] | 82
8 | Cc1cc(Nc2nc(Nc3cc(C)c([C@H]4CC[C@H](N5CCOCC5)CC4)cc3F)ncc2C(F)(F)F)n[nH]1 [Compound 65, N2-(2-fluoro-5-methyl-4-((trans)-4-morpholinocyclohexyl)phenyl)-N4-(5-methyl-1H-pyrazol-3-yl)-5-(trifluoromethyl)pyrimidine-2,4-diamine] | 32
9 | Cc1cc(Nc2nc(Nc3cc(F)c(-c4cnn(C)c4)cc3C)ncc2Cl)n[nH]1 [Compound 27, 5-chloro-N2-(5-fluoro-2-methyl-4-(1-methyl-1H-pyrazol-4-yl)phenyl)-N4-(5-methyl-1H-pyrazol-3-yl)pyrimidine-2,4-diamine] | 549
10 | Cc1cc(-c2cc(F)c(Nc3ncc(Cl)c(Nc4cc(C)[nH]n4)n3)cc2C)ccn1 [Compound 9, 5-chloro-N2-(2-fluoro-5-methyl-4-(2-methylpyridin-4-yl)phenyl)-N4-(5-methyl-1H-pyrazol-3-yl)pyrimidine-2,4-diamine] | 94
11 | C/C(=N\OCCO)c1cc(C)c(Nc2ncc(Cl)c(Nc3cc(C)[nH]n3)n2)cc1C [Compound 28, 1-(4-(5-chloro-4-(5-methyl-1H-pyrazol-3-ylamino)pyrimidin-2-ylamino)-2,5-dimethylphenyl)ethanone O-2-hydroxyethyloxime] | 141
12 | Cc1cc(Nc2nc(Nc3ccc(C4CCN(CC(N)=O)CC4)c4ccccc34)ncc2Cl)n[nH]1 [Compound 86, 2-(4-(4-(5-chloro-4-(5-methyl-1H-pyrazol-3-ylamino)pyrimidin-2-ylamino)naphthalene-1-yl)piperidin-1-yl)acetamide] | 107
13 | Cc1cc(Nc2nc(Nc3cc(C)c([C@H]4CC[C@H](N5CCNCC5)CC4)cc3F)ncc2Cl)n[nH]1 [Compound 59, 5-chloro-N2-(2-fluoro-5-methyl-4-((trans)-4-(piperazin-1-yl)cyclohexyl)phenyl)-N4-(5-methyl-1H-pyrazol-3-yl)pyrimidine-2,4-diamine] | 39
14 | Cc1cc(Nc2nc(Nc3cc4c(cc3F)CN(C3CCNCC3)C4=O)ncc2Cl)no1 [Compound 80, 6-(5-chloro-4-(5-methylisoxazol-3-ylamino)pyrimidin-2-ylamino)-5-fluoro-2-(piperidin-4-yl)isoindolin-1-one] | 2650
15 | Cc1cc(Nc2nc(Nc3cc(C)c([C@H]4CC[C@@H](N5CCCCC5)CC4)cc3C)ncc2C(F)(F)F)n[nH]1 [Compound 60, N2-(2,5-dimethyl-4-((cis)-4-(piperidin-1-yl)cyclohexyl)phenyl)-N4-(5-methyl-1H-pyrazol-3-yl)-5-(trifluoromethyl)pyrimidine-2,4-diamine] | 4
16 | Cc1cc(Nc2nc(Nc3cc(C)c(-c4cnco4)cc3C)ncc2Cl)n[nH]1 [Compound 20, 5-chloro-N2-(2,5-dimethyl-4-(oxazol-5-yl)phenyl)-N4-(5-methyl-1H-pyrazol-3-yl)pyrimidine-2,4-diamine] | 109
17 | Cc1cc(Nc2nc(Nc3cc(C)c([C@H]4CC[C@H](N5CCOCC5)CC4)cc3F)ncc2Cl)n[nH]1 [Compound 50, Trans-5-chloro-N2-(2-fluoro-5-methyl-4-(4-morpholinocyclohexyl)phenyl)-N4-(5-methyl-1H-pyrazol-3-yl)pyrimidine-2,4-diamine] | 31
18 | Cc1cc(Nc2nc(Nc3cc(C)c(-c4ccc5c(c4)CCNC5)cc3C)ncc2Cl)n[nH]1 [Compound 74, 5-chloro-N2-(2,5-dimethyl-4-(1,2,3,4-tetrahydroisoquinolin-6-yl)phenyl)-N4-(5-methyl-1H-pyrazol-3-yl)pyrimidine-2,4-diamine] | 87
19 | Cc1cc(Nc2nc(Nc3cc(C)c([C@H]4CC[C@H](O)CC4)cc3F)ncc2Cl)n[nH]1 [Compound 72, Trans-4-(4-(5-chloro-4-(5-methyl-1H-pyrazol-3-ylamino)pyrimidin-2-ylamino)-5-fluoro-2-methylphenyl)cyclohexanol] | 99
20 | Cc1cc(Nc2nc(Nc3cc(C)c([C@H]4CC[C@H](N5CCCCC5)CC4)cc3F)ncc2Cl)n[nH]1 [Compound 49, Trans-5-chloro-N2-(2-fluoro-5-methyl-4-(4-(piperidin-1-yl)cyclohexyl)phenyl)-N4-(5-methyl-1H-pyrazol-3-yl)pyrimidine-2,4-diamine] | 40
21 | Cc1cc(Nc2nc(Nc3cc(C)c(-c4ncc[nH]4)cc3C)ncc2Cl)n[nH]1 [Compound 17, N2-(4-(1H-imidazol-2-yl)-2,5-dimethylphenyl)-5-chloro-N4-(5-methyl-1H-pyrazol-3-yl)pyrimidine-2,4-diamine] | 68
22 | Cc1cc(Nc2nc(Nc3cc(C)c(-c4ncc[nH]4)cc3F)ncc2Cl)n[nH]1 [Compound 19, 5-chloro-N2-(2-fluoro-4-(1H-imidazol-2-yl)-5-methylphenyl)-N4-(5-methyl-1H-pyrazol-3-yl)pyrimidine-2,4-diamine] | 288
23 | Cc1cc(Nc2nc(Nc3cc(C)c([C@H]4CC[C@@H](N5CCOCC5)CC4)cc3C)ncc2C(F)(F)F)n[nH]1 [Compound 66, N^2-(2,5-dimethyl-4-(cis-4-morpholinocyclohexyl)phenyl)-N^4-(5-methyl-1H-pyrazol-3-yl)-5-(trifluoromethyl)pyrimidine-2,4-diamine] | 14
24 | Cc1cc(-c2cc(C)c(Nc3ncc(Cl)c(Nc4cc(C)[nH]n4)n3)cc2C)[nH]n1 [Compound 22, 5-chloro-N2-(2,5-dimethyl-4-(3-methyl-1H-pyrazol-5-yl)phenyl)-N4-(5-methyl-1H-pyrazol-3-yl)pyrimidine-2,4-diamine] | 166
25 | Cc1cc(Nc2nc(Nc3cc(C)c([C@H]4CC[C@@H](N5CCOCC5)CC4)cc3F)ncc2C(F)(F)F)n[nH]1 [Compound 64, N2-(2-fluoro-5-methyl-4-((cis)-4-morpholinocyclohexyl)phenyl)-N4-(5-methyl-1H-pyrazol-3-yl)-5-(trifluoromethyl)pyrimidine-2,4-diamine] | 50
26 | Cc1cc(Nc2nc(Nc3cc(C)c(-c4ccc(O)nc4)cc3F)ncc2Cl)n[nH]1 [Compound 8, 5-(4-(5-chloro-4-(5-methyl-1H-pyrazol-3-ylamino)pyrimidin-2-ylamino)-5-fluoro-2-methylphenyl)pyridin-2-ol] | 55
27 | Cc1cc(-c2cc(C)c(Nc3ncc(Cl)c(Nc4cc(C)[nH]n4)n3)cc2C)ccn1 [Compound 15, 5-chloro-N2-(2,5-dimethyl-4-(2-methylpyridin-4-yl)phenyl)-N4-(5-methyl-1H-pyrazol-3-yl)pyrimidine-2,4-diamine] | 39

Source: patent publication US8445505B2 (IRM LLC, priority 2008, dated 2013)
